Reference: patent US20250000881A1, “TREATMENT OF TREATMENT RESISTANT […] PSILOCYBIN” (COMPASS […], priority 2021, published 2025)

How the values were obtained:
adult subjects with TRD [1] = assay: Phase 2b trial in TRD: Positive and Negative Affect Schedule (PANAS); assay type: in vivo, human; details: 25 mg vs 1 mg group, week 3
Description: (§1) Other objectives were to evaluate the effects of psilocybin on quality of life and wellbeing, functioning and associated disability, cognitive function, and anxiety compared to 1 mg psilocybin on: • (a) Quality of life in subject EuroQoL (EQ)-5 dimension-3 level scale (EQ-5D-3L) score change from Baseline to week 3. This will also be assessed at week 12. This assessment was not mandatory. • (b) Quality of life in caregiver EQ-5D-3L score change from Baseline to week 3. This was assessed at week 12. • (c) Functioning and associated disability in the Sheehan Disability Scale (SDS) score change from Baseline to week 3. This was also assessed at week 12. • (d) Cognitive function as measured by the Digit Symbol Substitution Test (DSST) score change from baseline to week 3. This was assessed at day 1 and week 12. • (e) Level of anxiety as measured using the change in Generalised Anxiety Disorder 7 item Scale (GAD-7) total score change from baseline to week 3. This was assessed at week 12. • (f) Subject determined level of depression as measured using the change in Quick Inventory of Depressive Symptomatology Self-Rated (QIDS-SR-16) total score from Baseline to week 3. […] This was assessed at week 12. • (h) To evaluate the impact of different psilocybin doses on real life functional activity estimated from passive data streams collected on a mobile app on subjects' mobile phones. […]

adult subjects with TRD [2] = assay: Phase 2b trial in TRD: Sheehan Disability Scale (SDS); assay type: in vivo, human; details: 25 mg vs 1 mg, week 3
Description: as §1

CN(C)CCc1c[nH]c2cccc(OP(=O)(O)O)c12 [COMP360, psilocybin]
PANAS negative affect, least squares mean (95% confidence intervals) treatment difference (adult subjects with TRD [1]): −3.18 (−5.59, −0.77) | PANAS positive affect, least squares mean (95% confidence intervals) treatment difference (adult subjects with TRD [1]): 6.17 (3.53, 8.82) | SDS treatment difference (adult subjects with TRD [2]): −6.49
